Data: PubChem BioAssay AID214 (DTP/NCI, 2004)
Several values for one entry are separate records, joined by “and”; a condition that tells them apart may be missing. Equal values may be shown once. Results filed as inconclusive are left out.

Tested on: B6C3F1 mice, colon carcinoma 38 s.c., T/C
Experiment: NCI In Vivo Anticancer Drug Screen. Data for tumor model Colon Carcinoma 38 (subcutaneous) in B6C3F1 mice
Conditions: higher = larger tumour
Procedure: The antitumor activity of compounds was measured in mice bearing transplantable tumors. Survival or tumor size were measured and the results are expressed as the measurement made in the treated group (T) divided by the measurement made in the vehicle treated control group (C). The tumor model used in this assay is Colon Carcinoma 38 (subcutaneous) in B6C3F1 mice

[1] = endpoint: median tumor weight (est.), dose: 100.0 mg/kg/injection, schedule: Q07DX002 (ip), vehicle: suspension in saline
[2] = endpoint: median tumor weight (est.), dose: 50.0 mg/kg/injection, schedule: Q07DX002 (ip), vehicle: saline
[3] = endpoint: median tumor weight (est.), dose: 100.0 mg/kg/injection, schedule: Q07DX002 (ip), vehicle: saline
[4] = endpoint: median tumor weight (est.), dose: 200.0 mg/kg/injection, schedule: Q07DX002 (ip), vehicle: saline
[5] = endpoint: median tumor weight (est.), dose: 400.0 mg/kg/injection, schedule: Q07DX002 (ip), vehicle: saline
[6] = endpoint: median tumor weight (est.), dose: 800.0 mg/kg/injection, schedule: Q07DX002 (ip), vehicle: saline
[7] = endpoint: median tumor weight (est.), dose: 25.0 mg/kg/injection, schedule: Q07DX002 (ip), vehicle: Klucel (hydroxypropylcellulose) (HPC)
[8] = endpoint: median tumor weight (est.), dose: 200.0 mg/kg/injection, schedule: Q07DX002 (ip), vehicle: saline with Tween-80

Compound: O=C(O)Cc1cccc2c(=O)cc(-c3ccccc3)oc12
- T/C (endpoint: median tumor weight (est.), dose: 33.0 mg/kg/injection, schedule: Q07DX002 (ip), vehicle: suspension in saline): 67 % of control
- T/C (endpoint: median tumor weight (est.), dose: 63.0 mg/kg/injection, schedule: Q07DX002 (ip), vehicle: clinical formulation): 109 % of control
- T/C (endpoint: median tumor weight (est.), dose: 63.0 mg/kg/injection, schedule: Q07DX002 (ip), vehicle: sodium bicarbonate): 100 % of control
- T/C (endpoint: median tumor weight (est.), dose: 63.0 mg/kg/injection, schedule: Q07DX002 (iv), vehicle: clinical formulation): 114 % of control
- T/C (endpoint: median tumor weight (est.), dose: 63.0 mg/kg/injection, schedule: Q07DX002 (iv), vehicle: sodium bicarbonate): 90 % of control
- T/C (endpoint: median tumor weight (est.), dose: 66.0 mg/kg/injection, schedule: Q07DX002 (ip), vehicle: suspension in saline): 89 % of control
- T/C (endpoint: median tumor weight (est.), dose: 84.0 mg/kg/injection, schedule: Q07DX002 (ip), vehicle: clinical formulation): 91 % of control
- T/C (endpoint: median tumor weight (est.), dose: 84.0 mg/kg/injection, schedule: Q07DX002 (ip), vehicle: sodium bicarbonate): 155 % of control
- T/C (endpoint: median tumor weight (est.), dose: 84.0 mg/kg/injection, schedule: Q07DX002 (iv), vehicle: clinical formulation): 67 % of control
- T/C (endpoint: median tumor weight (est.), dose: 84.0 mg/kg/injection, schedule: Q07DX002 (iv), vehicle: sodium bicarbonate): 82 % of control
- T/C [1]: 90 % of control
- T/C (endpoint: median tumor weight (est.), dose: 112.0 mg/kg/injection, schedule: Q07DX002 (ip), vehicle: clinical formulation): 95 % of control
- T/C (endpoint: median tumor weight (est.), dose: 112.0 mg/kg/injection, schedule: Q07DX002 (iv), vehicle: clinical formulation): 74 % of control
- T/C (endpoint: median tumor weight (est.), dose: 112.0 mg/kg/injection, schedule: Q07DX002 (iv), vehicle: sodium bicarbonate): 84 % of control and 102 % of control
- T/C (endpoint: median tumor weight (est.), dose: 128.0 mg/kg/injection, schedule: Q07DX002 (ip), vehicle: water): 79 % of control
- T/C (endpoint: median tumor weight (est.), dose: 150.0 mg/kg/injection, schedule: Q07DX002 (ip), vehicle: clinical formulation): 14 % of control
- T/C (endpoint: median tumor weight (est.), dose: 150.0 mg/kg/injection, schedule: Q07DX002 (ip), vehicle: sodium bicarbonate): 101 % of control
- T/C (endpoint: median tumor weight (est.), dose: 150.0 mg/kg/injection, schedule: Q07DX002 (ip), vehicle: suspension in saline): 10 % of control
- T/C (endpoint: median tumor weight (est.), dose: 150.0 mg/kg/injection, schedule: Q07DX002 (iv), vehicle: clinical formulation): 47 % of control
- T/C (endpoint: median tumor weight (est.), dose: 150.0 mg/kg/injection, schedule: Q07DX002 (iv), vehicle: sodium bicarbonate): 57 % of control
- T/C (endpoint: median tumor weight (est.), dose: 160.0 mg/kg/injection, schedule: Q07DX002 (ip), vehicle: water): 81 % of control
- T/C (endpoint: median tumor weight (est.), dose: 200.0 mg/kg/injection, schedule: Q07DX002 (ip), vehicle: sodium bicarbonate): 79 % of control and 87 % of control
- T/C (endpoint: median tumor weight (est.), dose: 200.0 mg/kg/injection, schedule: Q07DX002 (ip), vehicle: water): 25 % of control
- T/C (endpoint: median tumor weight (est.), dose: 250.0 mg/kg/injection, schedule: Q07DX002 (ip), vehicle: water): 13 % of control
- T/C (endpoint: median tumor weight (est.), dose: 267.0 mg/kg/injection, schedule: Q07DX002 (iv), vehicle: sodium bicarbonate): 77 % of control
- T/C (endpoint: median tumor weight (est.), dose: 356.0 mg/kg/injection, schedule: Q07DX002 (iv), vehicle: sodium bicarbonate): 77 % of control
- T/C (endpoint: optimum tumor weight change, dose: 128.0 mg/kg/injection, schedule: Q07DX002 (ip), vehicle: water): 78 % of control
- T/C (endpoint: optimum tumor weight change, dose: 160.0 mg/kg/injection, schedule: Q07DX002 (ip), vehicle: water): 50 % of control
- T/C (endpoint: optimum tumor weight change, dose: 200.0 mg/kg/injection, schedule: Q07DX002 (ip), vehicle: water): 72 % of control
- T/C (endpoint: optimum tumor weight change, dose: 250.0 mg/kg/injection, schedule: Q07DX002 (ip), vehicle: water): 20 % of control

Compound: C[n+]1c(-c2cccc(OCCOCCOc3cccc(-c4c5cc(N)ccc5c5ccc(N)cc5[n+]4C)c3)c2)c2cc(N)ccc2c2ccc(N)cc21
- T/C (endpoint: median tumor weight (est.), dose: 4.0 mg/kg/injection, schedule: Q07DX002 (ip), vehicle: water): 71 % of control
- T/C (endpoint: median tumor weight (est.), dose: 8.0 mg/kg/injection, schedule: Q07DX002 (ip), vehicle: water): 54 % of control
- T/C (endpoint: median tumor weight (est.), dose: 16.0 mg/kg/injection, schedule: Q07DX002 (ip), vehicle: water): 85 % of control and 66 % of control
- T/C (endpoint: median tumor weight (est.), dose: 64.0 mg/kg/injection, schedule: Q07DX002 (ip), vehicle: water): 33 % of control and 52 % of control

Compound: OC(C1CO1)C(O)C1CO1 (configuration not stated)
- T/C (endpoint: median tumor weight (est.), dose: 2.0 mg/kg/injection, schedule: Q07DX002 (ip), vehicle: saline): 117 % of control
- T/C (endpoint: median tumor weight (est.), dose: 4.0 mg/kg/injection, schedule: Q07DX002 (ip), vehicle: saline): 107 % of control
- T/C (endpoint: median tumor weight (est.), dose: 8.0 mg/kg/injection, schedule: Q07DX002 (ip), vehicle: saline): 57 % of control

Compound: CN(C)/N=N/c1nc[nH]c1C(N)=O
- T/C (endpoint: median tumor weight (est.), dose: 90.0 mg/kg/injection, schedule: Q01DX006 (ip), vehicle: carboxymethylcellulose (CMC)): 47 % of control

Compound: CN(C)CCCNc1c2ccccc2nc2cccc([N+](=O)[O-])c12
- T/C (endpoint: median tumor weight (est.), dose: 0.03 mg/kg/injection, schedule: Q07DX002 (ip), vehicle: saline): 104 % of control
- T/C (endpoint: median tumor weight (est.), dose: 0.06 mg/kg/injection, schedule: Q07DX002 (ip), vehicle: saline): 79 % of control and 221 % of control

Compound: NC(CCC(=O)NC(CS)C(=O)NCC(=O)O)C(=O)O (configuration not stated)
- T/C [2]: 89 % of control
- T/C [3]: 87 % of control
- T/C [4]: 102 % of control
- T/C [5]: 88 % of control
- T/C [6]: 113 % of control

Compound: NC1(C(=O)O)CCCC1
- T/C (endpoint: median tumor weight (est.), dose: 50.0 mg/kg/injection, schedule: Q07DX003 (ip), vehicle: saline): 69 % of control
- T/C (endpoint: median tumor weight (est.), dose: 100.0 mg/kg/injection, schedule: Q07DX003 (ip), vehicle: saline): 81 % of control
- T/C (endpoint: median tumor weight (est.), dose: 200.0 mg/kg/injection, schedule: Q07DX003 (ip), vehicle: saline): 39 % of control

Compound: O=C(O)c1cc(Cc2ccc(O)c(C(=O)O)c2)ccc1O (tested in a mixture with another compound)
- T/C [7]: 71 % of control
- T/C (endpoint: median tumor weight (est.), dose: 50.0 mg/kg/injection, schedule: Q07DX002 (ip), vehicle: Klucel (hydroxypropylcellulose) (HPC)): 78 % of control
- T/C (endpoint: median tumor weight (est.), dose: 100.0 mg/kg/injection, schedule: Q07DX002 (ip), vehicle: Klucel (hydroxypropylcellulose) (HPC)): 70 % of control
- T/C (endpoint: median tumor weight (est.), dose: 200.0 mg/kg/injection, schedule: Q07DX002 (ip), vehicle: Klucel (hydroxypropylcellulose) (HPC)): 115 % of control
- T/C (endpoint: median tumor weight (est.), dose: 400.0 mg/kg/injection, schedule: Q07DX002 (ip), vehicle: Klucel (hydroxypropylcellulose) (HPC)): 63 % of control

Compound: CC1CCC(NC(=O)N(CCCl)N=O)CC1 (configuration not stated)
- T/C (endpoint: median tumor weight (est.), dose: 4.0 mg/kg/injection, schedule: Q07DX002 (ip), vehicle: Klucel (hydroxypropylcellulose) (HPC)): 101 % of control
- T/C (endpoint: median tumor weight (est.), dose: 8.0 mg/kg/injection, schedule: Q07DX002 (ip), vehicle: Klucel (hydroxypropylcellulose) (HPC)): 69 % of control
- T/C (endpoint: median tumor weight (est.), dose: 16.0 mg/kg/injection, schedule: Q07DX002 (ip), vehicle: Klucel (hydroxypropylcellulose) (HPC)): 34 % of control
- T/C (endpoint: median tumor weight (est.), dose: 32.0 mg/kg/injection, schedule: Q07DX002 (ip), vehicle: Klucel (hydroxypropylcellulose) (HPC)): 17 % of control

Compound: COc1cc(C)c(C2NC(=O)c3ccccc3N2)cc1C (configuration not stated)
- T/C (endpoint: median tumor weight (est.), dose: 450.0 mg/kg/injection, schedule: Q07DX002 (ip), vehicle: Klucel (hydroxypropylcellulose) (HPC)): 70 % of control
- T/C (endpoint: median tumor weight (est.), dose: 900.0 mg/kg/injection, schedule: Q07DX002 (ip), vehicle: Klucel (hydroxypropylcellulose) (HPC)): 53 % of control
- T/C (endpoint: median tumor weight (est.), dose: 1800.0 mg/kg/injection, schedule: Q07DX002 (ip), vehicle: Klucel (hydroxypropylcellulose) (HPC)): 115 % of control
- T/C (endpoint: median tumor weight (est.), dose: 3600.0 mg/kg/injection, schedule: Q07DX002 (ip), vehicle: Klucel (hydroxypropylcellulose) (HPC)): 55 % of control

Compound: O=NN(CCF)C(=O)NC1CCCCC1
- T/C (endpoint: median tumor weight (est.), dose: 6.25 mg/kg/injection, schedule: Q07DX002 (ip), vehicle: Klucel (hydroxypropylcellulose) (HPC)): 115 % of control
- T/C [7]: 77 % of control

Compound: CCN(CC)c1ccc2[nH]c3c(C(N)=O)cc(=O)c(=O)c=3oc2c1
- T/C (endpoint: median tumor weight (est.), dose: 100.0 mg/kg/injection, schedule: Q07DX002 (ip), vehicle: saline with Tween-80): 93 % of control
- T/C [8]: 99 % of control
- T/C (endpoint: median tumor weight (est.), dose: 400.0 mg/kg/injection, schedule: Q07DX002 (ip), vehicle: saline with Tween-80): 93 % of control

Compound: CC1(C)OCC2OC=CC(=O)C2O1 (configuration not stated)
- T/C [8]: 222 % of control

Compound: O=C(c1cccnc1)c1cc(-c2ccccn2)c(=O)n2ccccc12
- T/C [4]: 75 % of control
- T/C [5]: 83 % of control
- T/C [6]: 88 % of control

Compound: O=C(O)C(O)C(O)C1[O][Sb][O]C1C(=O)O (configuration not stated)
- T/C (endpoint: median tumor weight (est.), dose: 12.5 mg/kg/injection, schedule: Q07DX002 (ip), vehicle: saline): 76 % of control
- T/C (endpoint: median tumor weight (est.), dose: 25.0 mg/kg/injection, schedule: Q07DX002 (ip), vehicle: saline): 84 % of control
- T/C [2]: 123 % of control
- T/C [3]: 107 % of control

Compound: O=c1[nH]cnc2[nH]ncc12
- T/C (endpoint: median tumor weight (est.), dose: 25.0 mg/kg/injection, schedule: Q07DX002 (ip), vehicle: suspension in saline): 83 % of control
- T/C (endpoint: median tumor weight (est.), dose: 50.0 mg/kg/injection, schedule: Q07DX002 (ip), vehicle: suspension in saline): 69 % of control
- T/C [1]: 88 % of control
